# Reference: BindingDB's records for doi:10.1016/j.bmcl.2005.03.034 (Glaxosmithkline, 2005)
# Biological target: Vascular endothelial growth factor receptor 2 (Homo sapiens, UniProt P35968)
# Assay: Homogeneous Time-resolved Fluorescence (HTRF) Assay
# Source text: The assay was using baculovirus-expressed recombinant protein kinase purified as the intracellular domain fused by GST tag, interacting with biotinylated peptide substrate. HTRF is based on the proximity of europium cryptate (donor fluorophore)-labeled antiphosphotyrosine and streptavidin labeled with APC(allophycocyanin), which have been brought together by a binding reaction. When the two entities come into close proximity and upon excitation, energy transfer occurs and APC re-emits at 665 nm.
# Sequence of Vascular endothelial growth factor receptor 2 (P35968 whole entry): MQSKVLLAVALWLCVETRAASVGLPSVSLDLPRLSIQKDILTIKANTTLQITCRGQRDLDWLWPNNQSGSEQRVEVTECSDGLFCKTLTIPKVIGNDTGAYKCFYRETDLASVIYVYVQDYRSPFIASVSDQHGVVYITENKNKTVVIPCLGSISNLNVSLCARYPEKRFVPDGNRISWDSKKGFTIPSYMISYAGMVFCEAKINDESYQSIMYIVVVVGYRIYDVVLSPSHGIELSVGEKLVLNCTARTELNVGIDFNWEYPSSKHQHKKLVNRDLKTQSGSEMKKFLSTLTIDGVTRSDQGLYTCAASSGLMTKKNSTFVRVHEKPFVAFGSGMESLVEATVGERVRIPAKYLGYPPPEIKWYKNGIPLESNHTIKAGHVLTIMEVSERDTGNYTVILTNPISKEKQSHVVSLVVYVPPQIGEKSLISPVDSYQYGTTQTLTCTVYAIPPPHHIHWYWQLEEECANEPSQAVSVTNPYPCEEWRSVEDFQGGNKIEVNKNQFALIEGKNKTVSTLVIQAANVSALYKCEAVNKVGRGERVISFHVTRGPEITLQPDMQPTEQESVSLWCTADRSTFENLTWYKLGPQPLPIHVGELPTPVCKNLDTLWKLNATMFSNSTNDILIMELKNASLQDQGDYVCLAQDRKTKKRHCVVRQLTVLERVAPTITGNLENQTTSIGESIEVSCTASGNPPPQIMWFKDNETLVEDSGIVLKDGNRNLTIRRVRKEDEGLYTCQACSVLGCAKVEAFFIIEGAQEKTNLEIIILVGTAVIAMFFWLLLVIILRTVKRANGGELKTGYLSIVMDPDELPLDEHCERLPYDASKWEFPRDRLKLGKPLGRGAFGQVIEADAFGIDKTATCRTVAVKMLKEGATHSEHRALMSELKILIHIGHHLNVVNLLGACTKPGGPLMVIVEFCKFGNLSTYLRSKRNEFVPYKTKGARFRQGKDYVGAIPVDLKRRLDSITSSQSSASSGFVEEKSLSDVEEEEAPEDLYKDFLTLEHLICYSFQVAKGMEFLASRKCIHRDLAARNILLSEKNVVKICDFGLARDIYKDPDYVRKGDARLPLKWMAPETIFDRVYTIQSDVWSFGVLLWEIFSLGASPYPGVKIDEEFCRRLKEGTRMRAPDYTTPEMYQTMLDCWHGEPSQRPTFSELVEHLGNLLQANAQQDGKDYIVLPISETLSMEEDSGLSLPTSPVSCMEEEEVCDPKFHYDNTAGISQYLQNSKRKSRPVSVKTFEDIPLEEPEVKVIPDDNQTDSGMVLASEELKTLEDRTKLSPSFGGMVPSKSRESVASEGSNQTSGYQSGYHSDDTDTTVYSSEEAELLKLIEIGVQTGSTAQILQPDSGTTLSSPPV
row,Structure (SMILES),IC50
1,CN(c1ccc(NC(=N)Nc2ccccc2)cc1)c1ccnc(Nc2cccc(CS(C)(=O)=O)c2)n1 [1-{4-[(2-{[3-(methanesulfonylmethyl)phenyl]amino}pyrimidin-4-yl)(methyl)amino]phenyl}benzeneguanidine],0.324 µM
2,CN(c1ccc(NC(=S)Nc2ccccc2)cc1)c1ccnc(Nc2cccc(CS(C)(=O)=O)c2)n1 [3-{4-[(2-{[3-(methanesulfonylmethyl)phenyl]amino}pyrimidin-4-yl)(methyl)amino]phenyl}-1-phenylthiourea],0.117 µM
3,CN(c1ccc(NC(=O)Nc2ccccc2)cc1)c1ccnc(Nc2cccc(CS(C)(=O)=O)c2)n1 [3-{4-[(2-{[3-(methanesulfonylmethyl)phenyl]amino}pyrimidin-4-yl)(methyl)amino]phenyl}-1-phenylurea],0.018 µM
4,CN(c1ccc(NC(=O)Nc2ccccc2)cc1)c1ccnc(Nc2cccc(S(N)(=O)=O)c2)n1 [3-{4-[methyl({2-[(3-sulfamoylphenyl)amino]pyrimidin-4-yl})amino]phenyl}-1-phenylurea],0.005 µM
5,CN(c1ccc(NS(=O)(=O)Cc2ccccc2)cc1)c1ccnc(Nc2cccc(CS(C)(=O)=O)c2)n1 [N-{4-[(2-{[3-(methanesulfonylmethyl)phenyl]amino}pyrimidin-4-yl)(methyl)amino]phenyl}-1-phenylmethanesulfonamide],0.269 µM
6,CN(c1ccc(NC(=O)Cc2ccccc2)cc1)c1ccnc(Nc2cccc(CS(C)(=O)=O)c2)n1 [N-{4-[(2-{[3-(methanesulfonylmethyl)phenyl]amino}pyrimidin-4-yl)(methyl)amino]phenyl}-2-phenylacetamide],0.176 µM
7,CN(c1ccc(NC(=O)Oc2ccccc2)cc1)c1ccnc(Nc2cccc(CS(C)(=O)=O)c2)n1 [phenyl N-{4-[(2-{[3-(methanesulfonylmethyl)phenyl]amino}pyrimidin-4-yl)(methyl)amino]phenyl}carbamate],0.095 µM
